Source: US6511848B2, “Process for producing and multiplying lymphocytes” (Winfried Albert, priority 1996, dated 2003)

Key:
[1] = system: killer T cells; assay: Multiplication of killer T cells in serum-free DF medium; format: cell-based, human
Description: Mononuclear cells from peripheral blood (PBMNC) of human donors are isolated by means of gradient centrifugation (lymphocyte separation medium, BM), washed twice with phosphate-buffered saline solution and incubated at a density of 5-10×10^6 cells/ml DF medium according to Thiele and Lipsky (J. Immunol. 136 (1986) 1038-1048) with 250 μM leucyl-leucine-methyl ester (BM) for 20 minutes at room temperature. After washing with DF medium the cells are cultured at 37° C. in 8% CO2 atmosphere at a density of 1-2×10^6 per ml DF medium together with irradiated (2000 rad) HB654 cells or HB617 cells (stimulator cells; 2-5×10^5 per ml). On day 5-6 of the co-culture half to two thirds of the culture medium is renewed and irradiated stimulator cells (2-5×10^5 per ml) are added again. From day 8-10 after starting the co-culture, when all stimulator cells have been destroyed by the cytotoxic activity of the killer T cells, the killer T cells are used for the following examples. […]

[2] = system: Mononuclear cells from peripheral blood (PBMNC); assay: Multiplication of NK and T lymphocytes from mononuclear cells of human blood in serum-free medium; format: cell-based; conditions: serum-free DF medium, single cytokine
Excerpt: Mononuclear cells from peripheral blood (PBMNC) of a human donor are isolated by means of gradient centrifugation (lymphocyte separation medium, Boehringer Mannheim GmbH, Germany (BM)), washed twice with phosphate-buffered saline solution and taken up in DF medium at a density of 1×10^6 cells/ml and cultured in three separate preparations which are denoted A, B and C. […] Half of the culture medium (+cytokine(s)) is renewed every second day and the cell count is adjusted to ca. 1×10^6 cells/ml during the first 7 days and subsequently to ca. […].

Compound: CC[C@@H]1/C=C(\C)C[C@H](C)C[C@H](OC)[C@H]2O[C@@](O)(C(=O)C(=O)N3CCCC[C@H]3C(=O)O[C@H](/C(C)=C/[C@@H]3CC[C@@H](O)[C@H](OC)C3)[C@H](C)[C@@H](O)CC1=O)[C@H](C)C[C@@H]2OC [Ascomycin, reference compound]
- multiplication of killer T cells (in words) ([1]; additive alone, without growth factor): no multiplication

Compound: IL-15: Human recombinant IL-15 (R & D Systems), 15 ng/ml, lymphocyte growth factor
- doubling cycles after which proliferation stagnates ([1]; growth factor alone): 3 doubling cycles

Compound: TGFβ1: rh TGFβ1 (BM), 4 ng/ml
- growth behaviour of the cells (in words) [2]: do not multiply
